{
  "source": "patent US20110020841A1",
  "about": "“CENTROSOME AMPLIFICATION AS A BIOSENSOR FOR DNA DAMAGE” (National University of Ireland, Galway, priority 2006, published 2011)",
  "origin": "cited, not measured here",
  "test_system": "Chk1 kinase",
  "settings": "inhibition of Chk1 kinase with the drug; vertebrate cells; reference 11",
  "data": [
    {"smiles": "CN[C@@H]1C[C@H]2O[C@@](C)([C@@H]1OC)n1c3ccccc3c3c4c(c5c6ccccc6n2c5c31)C(=O)N[C@@H]4O", "note": "[UCN-01]", "values": [
      {"measurement": "DNA damage-induced centrosome amplification", "result": "suppresses DNA damage-centrosome amplification"}
    ]}
  ]
}
